Results taken from patent US20230381215A1, “NOVEL COMBINATION TREATMENT FOR ACUTE MYELOID LEUKEMIA (AML)” (Hoffmann-La Roche Inc., priority 2013, published 2023).

Key:
[1] = tested on: MOLM-13.luc.c4 (MOLM-13 human AML cells); test: Antitumor efficacy and survival/increase in life span (ILS) in disseminated MOLM-13.luc.c4 AML model; type: in vivo, SCID beige mice; conditions: for tumor burden by BLI photon counts compared to Vehicle-treated control (FIG. 1) / antitumor activity as assessed by tumor burden (BLI) or ILS: monotherapy; for tumor burden by BLI photon counts compared to Vehicle-treated control (FIG. 1): treatment initiated on day 3
Protocol: (§1) Female SCID beige mice (10/group), obtained from Charles River Laboratories (Wilmington, DE) were used when they were approximately 8-12 weeks old and weighed approximately 20-25 grams. The health of the mice was assessed daily by gross observation and analyses of blood samples taken from sentinel animals housed on shared shelf racks. All animals were allowed to acclimate and recover from any shipping-related stress for a minimum of 72 hours prior to experimental use. Autoclaved water and irradiated food (5058-ms Pico Lab mouse chow, Purina Mills, Richmond, IN) were provided ad libitum, and the animals were maintained on a 12 hour light and dark cycle. Cages, bedding and water bottles were autoclaved before use and changed weekly. All animal experiments were conducted in accordance with the Guide for the Care and Use of Laboratory Animals, local regulations, and protocols approved by the Roche Animal Care and Use Committee in an AAALAC accredited facility.
Parental MOLM-13 human AML cells were stably transfected with Luc2 lentiviral particles for 24 hrs in the presence of Polybrene (8 ug/ml) and then selected in the presence of Blasticidin for 3 weeks. Subsequently, one clone was selected by single cell plating in the presence of 0.1 mg/mL G418 and was designated MOLM-13.luc.c4. The lentiviral Luc2 expression plasmid was constructed by incorporating Luc2 gene (Promega) in to pLOC lentiviral plasmid backbone (Thermo Fisher Scientific). Luc2 lentiviral particles were prepared by using Trans-Lentiviral Packaging System (Thermo Fisher Scientific) as recommended.
MOLM-13.luc.c4 was maintained with RPMI 1640 with L-glutamine (2 mM) media (GIBCO/Invitrogen, Carlsbad, CA) supplemented with 10% heat-inactivated Fetal Bovine Serum (HI-FBS; GIBCO/Invitrogen, Carlsbad, CA), and 1% 100 mM sodium pyruvate. Freshly dissociated MOLM13-Luc.c4 cells (1×106 or 5×106) suspended in Phosphate Buffered Saline (PBS) were then intravenously inoculated via the caudal tail vein into female SCID-beige mice.
It was then filtered thru a 0.22 micron filter into a septum sealed vial for intravenous administration. […] Stock cytarabine (Ara-C injection, 100 mg/ml) was diluted in sterile 0.9% sodium chloride to 44 mg/ml according to manufacturer's instructions and dosed at 200 mg/kg iv twice weekly.
Treatment duration was 3 weeks.
(§2) For increased life span (ILS) assessment, animal body weights were measured two to three times per week, and animals were monitored daily for any clinical signs of toxicity or excessive tumor burden (i.e. hind limb paralysis or morbidity). In addition, progression of disease was monitored by in vivo bioluminescent imaging (BLI) using IVIS® Spectrum system. For each BLI session, mice received 100 mg/kg D-luciferin (Caliper Life Sciences/Perkin-Elmer) via ip injections and were imaged at 20 min post luciferin injection at either a 5 s or a 10 s exposure time. Images were captured by the IVIS® Spectrum system and data were collected and analyzed with Living Image 4.2.0 software (Caliper Life Sciences, Hopkinton, MA). Total photon fluxes (ph/s) representing luciferase activity within each fixed region of interest (ROI) covering whole tumors of individual mice were determined. The actual images of mice are not disclosed herein.
Quantification of bioluminescence allowed for direct longitudinal comparison of tumor burden between treatment groups prior to surrogate death end points being reached. Tumor burden was graphically represented as the mean BLI photon flux+standard error of the mean (SEM), and median survival was determined utilizing Kaplan Meier survival analysis. Statistical analysis of comparisons between groups was analyzed by two-way ANOVA, and post-hoc Bonferroni test (GraphPad Prism, version 4.3). Differences between groups were considered to be significant when the probability value (p) was ≤0.05.

[2] = Ara-C 200 mg/kg 2×/week iv; 10/group
Protocol: as §1, with “Cages, bedding and water bottles were autoclaved before use and changed weekly. All animal experiments were conducted in accordance with the Guide for the Care and Use of Laboratory Animals, local regulations, and protocols approved by the Roche Animal Care and Use Committee in an AAALAC accredited facility.” left out
as §2, with “For each BLI session, mice received 100 mg/kg D-luciferin (Caliper Life Sciences/Perkin-Elmer) via ip injections and were imaged at 20 min post luciferin injection at either a 5 s or a 10 s exposure time.” left out, “The actual images of mice are not disclosed herein.” left out

Molecule: 4-{[(2R,3S,4R,5S)-3-(3-Chloro-2-fluoro-phenyl)-4-(4-chloro-2-fluoro-phenyl)-4-cyano-5-(2,2-dimethyl-propyl)-pyrrolidine-2-carbonyl]-amino}-3-methoxy-benzoic acid 1-mPEG-carbonyloxy-ethyl ester (mPEG, average MW, 2200) [compound I-B]
- % ILS vs. Vehicle control ([1]; Cpd I-B 437 mg/kg q7d iv): 37%
- Median survival ([1]; Cpd I-B 437 mg/kg q7d iv, 5 million cells, treatment from day 3): 28 days
- % ILS vs. Vehicle control ([1]; Cpd I-B 437 mg/kg q7d iv, listed as Cpd I-B): *37%
- tumor burden by BLI photon counts compared to Vehicle-treated control (FIG. 1) ([1]; 5 million cells): significantly reduced photon counts

Molecule: Nc1ccn([C@@H]2O[C@H](CO)[C@@H](O)[C@@H]2O)c(=O)n1 [Ara-C, cytarabine, reference compound]
- Mortality [2]: 0
- % ILS vs. Vehicle control ([1]; Ara-C 200 mg/kg 2×/wk iv): 0%
- Median survival ([1]; Ara-C 200 mg/kg 2×/wk iv): 20 days
- antitumor activity as assessed by tumor burden (BLI) or ILS [1]: lack of monotherapy activity
- tumor burden by BLI photon counts compared to Vehicle-treated control (FIG. 1) ([1]; 5 million cells): no difference
- antitumor activity as assessed by tumor burden (BLI) or ILS ([1]; listed as Cytarabine (Ara-C)): lack of antitumor activity

Molecule: COc1cc(C(=O)O)ccc1NC(=O)[C@@H]1N[C@@H](CC(C)(C)C)[C@](C#N)(c2ccc(Cl)cc2F)[C@H]1c1cccc(Cl)c1F [compound (A), 4-{[(2R,3S,4R,5S)-4-(4-Chloro-2-fluoro-phenyl)-3-(3-chloro-2-fluoro-phenyl)-4-cyano-5-(2,2-dimethyl-propyl)-pyrrolidine-2-carbonyl]-amino}-3-methoxy-benzoic acid]
- % ILS vs. Vehicle control ([1]; Cpd (A) 80 mg/kg qd × 5 po): *37%
- Median survival ([1]; Cpd (A) 80 mg/kg qd × 5 po): 28 days
- % ILS vs. Vehicle control ([1]; Cpd (A) 100 mg/kg q7d po): *22%
- Median survival ([1]; Cpd (A) 100 mg/kg q7d po): 25 days
